Here are results for 10 compounds from US8188085B2, “Antifungal agents” (Merck Sharp & Dohme Corp., priority 2008, dated 2012).

SMILES strings stand for the structures.

Sequence of glucan synthase (GS) prepared from Candida albicans MY1055 (O13428 1-1897): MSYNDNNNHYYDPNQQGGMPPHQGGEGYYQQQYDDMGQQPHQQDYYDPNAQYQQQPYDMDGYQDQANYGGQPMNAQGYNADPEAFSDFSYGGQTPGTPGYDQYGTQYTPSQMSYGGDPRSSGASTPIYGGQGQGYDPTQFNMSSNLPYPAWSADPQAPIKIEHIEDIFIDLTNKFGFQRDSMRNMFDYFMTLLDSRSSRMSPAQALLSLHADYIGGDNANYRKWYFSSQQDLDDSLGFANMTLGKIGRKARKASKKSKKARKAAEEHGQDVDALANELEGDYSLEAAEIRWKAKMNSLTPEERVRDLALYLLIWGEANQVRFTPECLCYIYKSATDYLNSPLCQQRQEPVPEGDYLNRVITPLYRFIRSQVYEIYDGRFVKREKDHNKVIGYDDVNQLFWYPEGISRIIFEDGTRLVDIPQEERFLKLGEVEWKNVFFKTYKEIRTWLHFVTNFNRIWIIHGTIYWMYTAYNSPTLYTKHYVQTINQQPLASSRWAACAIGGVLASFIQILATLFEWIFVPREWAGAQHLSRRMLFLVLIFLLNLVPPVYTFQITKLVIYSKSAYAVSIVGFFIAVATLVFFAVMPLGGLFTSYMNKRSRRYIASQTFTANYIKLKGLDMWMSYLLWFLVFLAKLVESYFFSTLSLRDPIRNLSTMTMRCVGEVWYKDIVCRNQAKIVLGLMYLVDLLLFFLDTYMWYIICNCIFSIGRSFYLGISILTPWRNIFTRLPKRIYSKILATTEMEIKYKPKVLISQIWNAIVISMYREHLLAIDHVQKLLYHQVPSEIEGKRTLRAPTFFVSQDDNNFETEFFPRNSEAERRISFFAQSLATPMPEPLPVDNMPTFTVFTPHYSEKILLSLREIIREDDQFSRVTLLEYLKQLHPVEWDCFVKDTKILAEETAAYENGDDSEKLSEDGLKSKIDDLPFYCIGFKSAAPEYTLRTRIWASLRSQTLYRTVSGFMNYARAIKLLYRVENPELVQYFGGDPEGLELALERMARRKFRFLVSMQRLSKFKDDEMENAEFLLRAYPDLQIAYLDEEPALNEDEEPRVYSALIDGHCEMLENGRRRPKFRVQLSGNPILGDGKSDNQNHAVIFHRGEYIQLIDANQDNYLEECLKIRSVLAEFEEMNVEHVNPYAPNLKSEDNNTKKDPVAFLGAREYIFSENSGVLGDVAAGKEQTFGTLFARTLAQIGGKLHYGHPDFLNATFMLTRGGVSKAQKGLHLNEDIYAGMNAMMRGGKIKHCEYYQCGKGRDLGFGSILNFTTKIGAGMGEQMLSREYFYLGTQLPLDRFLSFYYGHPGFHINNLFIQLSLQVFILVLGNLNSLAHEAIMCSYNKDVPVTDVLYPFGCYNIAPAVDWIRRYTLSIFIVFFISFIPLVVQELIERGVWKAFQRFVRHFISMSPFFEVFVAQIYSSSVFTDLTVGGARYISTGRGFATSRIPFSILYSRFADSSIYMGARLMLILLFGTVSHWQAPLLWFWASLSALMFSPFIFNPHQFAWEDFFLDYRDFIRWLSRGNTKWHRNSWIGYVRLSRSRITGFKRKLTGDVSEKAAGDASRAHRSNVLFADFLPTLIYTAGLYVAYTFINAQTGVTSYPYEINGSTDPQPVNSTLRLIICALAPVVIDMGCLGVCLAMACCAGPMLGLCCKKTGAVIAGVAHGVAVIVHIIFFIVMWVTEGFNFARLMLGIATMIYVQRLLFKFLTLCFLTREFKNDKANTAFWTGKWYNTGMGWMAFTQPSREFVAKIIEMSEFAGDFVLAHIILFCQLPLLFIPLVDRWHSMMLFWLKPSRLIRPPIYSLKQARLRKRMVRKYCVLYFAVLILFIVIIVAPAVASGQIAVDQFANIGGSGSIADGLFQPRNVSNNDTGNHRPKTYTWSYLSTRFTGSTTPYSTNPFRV

The assay concerns the target glucan synthase (GS) prepared from Candida albicans MY1055 (Candida albicans, UniProt O13428). As to the kind of experiment: Glucan synthase inhibition (polymerization assay, 96-well). The format is biochemical. To be noted: GS from C. albicans MY1055; 60 min incubation at 22° C.; read-out: Candida Albicans GS IC50 (converted). How it is done: The in vitro evaluation of glucan synthase inhibitory activity of compounds was measured in a polymerization assay in 96-well format. Each well contained 100 μL of ^3H-UDPG at 0.5 mM (6000 to 8000 dpm/nmol), 50 mM HEPES pH 7.5 (Sigma), 10% w/v glycerol (Sigma), 1.5 mg/mL bovine serum albumin (Sigma A 9647. Lot 44H0190), 25 mM KF (Fisher), 1 mM EDTA (Gibco ULTRAPURE), 25 μM GTP-γ-S, enzyme sufficient to give 3 to 6 nmoles incorporation during the 60 min incubation at 22° C., and test compound added from wells in 3-fold serial dilutions in 100% DMSO (1 μL/well). The reaction was stopped by the addition of 100 μL of 20% trichloroacetic acid. Plates were chilled for a minimum of 10 min, and precipitated glucan collected by filtration on GF/C plates (Packard UNIFILTER®-96), washed with 5 cycles of water (about 1 mL/well each cycle) using a Packard FILTERMATE HARVESTER. 40 μL/well scintillation fluid (Packard ULTIMA GOLD TM-XR) was added and the sealed plates counted in a WALLAC BETA counter in top-counting mode at an efficiency of approximately 40%.
Stock solutions were stored at 10 mg/mL in DMSO at −20° C. For each new enzyme preparation, the initial titration performed started at 1 mg/mL, which was prepared by making a 10-fold dilution in DMSO (5 μL to 50 μL). 40 μL of this stock was placed in column 12 of a round-bottomed 96-well microtiter plate. 40 μL DMSO was added to columns 1 to 11 in the same row and ten 3-fold serial dilutions performed, by transferring 20 μL from column 12 to column 11 etc., with 4 mixings before each transfer. No test compound was transferred to from column 2 to column 1. Duplicate aliquots of 1 μL of all 12 dilutions were then transferred to the side walls of a 96-well Bioblock 1.1 mL plate (Fisher brand) to create two rows.
Graphs of the primary data were created in PRISM software (the average of two determinations) using PRISM's curve fitting program (sigmoidal dose response non-linear regression). The amount of compound required to inhibit glucan synthase activity by 50% in this assay (IC50−ng/mL) was calculated.
Routine analysis was performed with glucan synthase (GS) prepared from Candida albicans MY1055 by the following procedure: MY1055 was grown in 10 liters YPD medium (10 g yeast extract, 20 g tryptone, 20 g glucose per liter) with vigorous shaking at 30° C., to early stationary phase. Cells were harvested by centrifugation, the pellet was washed and frozen at −70° C. until breakage. Thawed pellets were shaken with an equal volume of breakage buffer (50 mM HEPES pH 7.4, 10% glycerol, 1 mM EDTA, 1 mM PMSF, 1 mM DTT) and 4 times their weight of 0.5 mm acid washed glass beads for 2 hours at 4° C. Extent of breakage was assessed visually at 40× magnification. After low speed centrifugation to remove cell debris, the supernatant was centrifuged at 100,000×g for 60 min. to separate membranes plus ribosomes from cytoplasmic components. Membranes were further washed two additional times with breakage buffer using the same centrifugation conditions and finally suspended in breakage buffer at 25 to 30 mg/mL protein (Biorad) for storage at −70° C. Extraction of GS activity from membranes was performed at a protein concentration of 5 mg/mL in extraction buffer (50 mM NaPO4 pH 7.5, 0.1 M KCl, 0.1M Na citrate, 20% glycerol, 5 μM GTP-γ-S, 1 mM DTT, 1 mM PMSF, 3 μg/mL pepstatin) plus 0.25% W1 by gentle mixing at 4° C. for 60 min, followed by centrifugation at 100,000×g for 60 min. After centrifugation, clear supernatant was removed from a pellet consisting of a hard layer usually with small amounts of gelatinous unextracted membranes above it.
Trapping was initiated immediately by 5-fold dilution in trapping buffer (50 mM HEPES pH 7.5, 10 mM KF, 1 mM EDTA, 2 mg/mL BSA) plus 2.5 mM UDPG and 10 μM GTP-γ-S. After incubation at 25° C. for 60 to 90 minutes, glucan was harvested by low speed centrifugation (3,000×g, 10 min). […]
In the case of `CCNC(=O)c1ccnn1[C@@H]1C[C@@]23COC[C@](C)([C@@H]2CC[C@H]2C3=CC[C@@]3(C)[C@H](C(=O)O)[C@@](C)([C@H](C)C(C)C)CC[C@]23C)[C@H]1OC[C@](C)(N)C(C)C` [Example 298, (1S,4aR,6aS,7R,8R,10aR,10bR,12aR,14R,15R)-15-[[(2R)-2-amino-2,3-dimethylbutyl]oxy]-8-[(1R)-1,2-dimethylpropyl]-14-[5-[(ethylamino)carbonyl]-1H-pyrazol-1-yl]-1,6,6a,7,8,9,10,10a,10b,11,12,12a-dodecahydro-1,6a,8,10a-tetramethyl-4H-1,4a-propano-2H-phenanthro[1,2-c]pyran-7-carboxylic acid], the IC50 (as a rule, the concentration that inhibits the measured activity by half) is 0.0381 µM.
The figure for `CC(C)[C@@H](C)[C@@]1(C)CC[C@]2(C)[C@H]3CC[C@@H]4[C@@]5(COC[C@@]4(C)[C@@H](OC[C@](C)(N)C(C)C)[C@H](n4ncnc4C(=O)NCCN(C)C)C5)C3=CC[C@@]2(C)[C@@H]1C(=O)O` [Example 83, (1S,4aR,6aS,7R,8R,10aR,10bR,12aR,14R,15R)-15-[[(2R)-2-amino-2,3-dimethylbutyl]oxy]-14-[5-[[[2-(dimethylamino)ethyl]amino]carbonyl]-1H-1,2,4-triazol-1-yl]-8-[(1R)-1,2-dimethylpropyl]-1,6,6a,7,8,9,10,10a,10b,11,12,12a-dodecahydro-1,6a,8,10a-tetramethyl-4H-1,4a-propano-2H-phenanthro[1,2-c]pyran-7-carboxylic acid] is 0.012 µM.
The figure for `CNC1(CO[C@H]2[C@H](n3ncnc3Cl)C[C@@]34COC[C@]2(C)[C@@H]3CC[C@H]2C4=CC[C@@]3(C)[C@H](C(=O)O)[C@@](C)([C@H](C)C(C)C)CC[C@]23C)CCOCC1` [Example 14, (1S,4aR,6aS,7R,8R,10aR,10bR,12aR,14R,15R)-14-(5-chloro-1H-1,2,4-triazol-1-yl)-8-[(1R)-1,2-dimethylpropyl]-15-[[tetrahydro-4-(methylamino)-2H-pyran-4-yl]methoxy]-1,6,6a,7,8,9,10,10a,10b,11,12,12a-dodecahydro-1,6a,8,10a-tetramethyl-4H-1,4a-propano-2H-phenanthro[1,2-c]pyran-7-carboxylic acid] is 0.00713 µM; for `CNC(=O)c1ncnn1[C@@H]1C[C@@]23COC[C@](C)([C@@H]2CC[C@H]2C3=CC[C@@]3(C)[C@H](C(=O)O)[C@@](C)([C@H](C)C(C)C)CC[C@]23C)[C@H]1OCC1(NC)CCSCC1` [Example 116, (1S,4aR,6aS,7R,8R,10aR,10bR,12aR,14R,15R)-8-[(1R)-1,2-dimethylpropyl]-14-[5-[(methylamino)carbonyl]-1H-1,2,4-triazol-1-yl]-15-[[tetrahydro-4-(methylamino)-2H-thiopyran-4-yl]methoxy]-1,6,6a,7,8,9,10,10a,10b,11,12,12a-dodecahydro-1,6a,8,10a-tetramethyl-4H-1,4a-propano-2H-phenanthro[1,2-c]pyran-7-carboxylic acid] it is 0.0203 µM.
The figure for `CC(C)[C@@H](C)[C@@]1(C)CC[C@]2(C)[C@H]3CC[C@@H]4[C@@]5(COC[C@@]4(C)[C@@H](OC[C@](C)(N)C(C)C)[C@H](n4ncnc4C(=O)N4CCOCC4)C5)C3=CC[C@@]2(C)[C@@H]1C(=O)O` [Example 86, (1S,4aR,6aS,7R,8R,10aR,10bR,12aR,14R,15R)-15-[[(2R)-2-amino-2,3-dimethylbutyl]oxy]-8-[(1R)-1,2-dimethylpropyl]-14-[5-(4-morpholinylcarbonyl)-1H-1,2,4-triazol-1-yl]-1,6,6a,7,8,9,10,10a,10b,11,12,12a-dodecahydro-1,6a,8,10a-tetramethyl-4H-1,4a-propano-2H-phenanthro[1,2-c]pyran-7-carboxylic acid] is 0.0705 µM.
As for `CC(C)[C@@H](C)[C@@]1(C)CC[C@]2(C)[C@H]3CC[C@@H]4[C@@]5(COC[C@@]4(C)[C@@H](OC[C@](C)(N)C(C)C)[C@H](n4nc(N)nc4C(N)=O)C5)C3=CC[C@@]2(C)[C@@H]1C(=O)O` [Example 119, (1S,4aR,6aS,7R,8R,10aR,10bR,12aR,14R,15R)-14-[3-amino-5-(aminocarbonyl)-1H-1,2,4-triazol-1-yl]-15-[[(2R)-2-amino-2,3-dimethylbutyl]oxy]-8-[(1R)-1,2-dimethylpropyl]-1,6,6a,7,8,9,10,10a,10b,11,12,12a-dodecahydro-1,6a,8,10a-tetramethyl-4H-1,4a-propano-2H-phenanthro[1,2-c]pyran-7-carboxylic acid], the IC50 is 0.0129 µM.
Consider `CC(C)[C@@H](C)[C@@]1(C)CC[C@]2(C)[C@H]3CC[C@@H]4[C@@]5(COC[C@@]4(C)[C@@H](OCC(C)(C(C)C)N(C)C)[C@H](n4ncnc4Cl)C5)C3=CC(=O)[C@@]2(C)[C@@H]1C(=O)O` (stereo partly drawn) [Example 9B, (1S,4aR,6aS,7R,8R,10aR,10bR,12aR,14R,15R)-14-(5-chloro-1H-1,2,4-triazol-1-yl)-15-[2-(dimethylamino)-2,3-dimethylbutoxy]-8-[(1R)-1,2-dimethylpropyl]-1,6,6a,7,8,9,10,10a,10b,11,12,12a-dodecahydro-1,6a,8,10a-tetramethyl-6-oxo-4H-1,4a-propano-2H-phenanthro[1,2-c]pyran-7-carboxylic acid], for which the IC50 was 0.0363 µM.
Turning to `CCCNC(=O)c1ncnn1[C@@H]1C[C@@]23COC[C@](C)([C@@H]2CC[C@H]2C3=CC[C@@]3(C)[C@H](C(=O)O)[C@@](C)([C@H](C)C(C)C)CC[C@]23C)[C@H]1OC[C@@](C)(N)C(C)C` [Example 105, (1S,4aR,6aS,7R,8R,10aR,10bR,12aR,14R,15R)-15-[[(2S)-2-amino-2,3-dimethylbutyl]oxy]-8-[(1R)-1,2-dimethylpropyl]-14-[5-[(propylamino)carbonyl]-1H-1,2,4-triazol-1-yl]-1,6,6a,7,8,9,10,10a,10b,11,12,12a-dodecahydro-1,6a,8,10a-tetramethyl-4H-1,4a-propano-2H-phenanthro[1,2-c]pyran-7-carboxylic acid], the IC50 is 0.029 µM.
Consider `CNC1(CO[C@H]2[C@H](n3ncnc3C(N)=O)C[C@@]34COC[C@]2(C)[C@@H]3CC[C@H]2C4=CC[C@@]3(C)[C@H](C(=O)O)[C@@](C)([C@H](C)C(C)C)CC[C@]23C)CCCCC1` [Example 107, (1S,4aR,6aS,7R,8R,10aR,10bR,12aR,14R,15R)-14-[5-(aminocarbonyl)-1H-1,2,4-triazol-1-yl]-8-[(1R)-1,2-dimethylpropyl]-15-[[1-(methylamino)cyclohexyl]methoxy]-1,6,6a,7,8,9,10,10a,10b,11,12,12a-dodecahydro-1,6a,8,10a-tetramethyl-4H-1,4a-propano-2H-phenanthro[1,2-c]pyran-7-carboxylic acid], for which the IC50 was 0.0198 µM.
The figure for `COC(=O)c1ncn([C@@H]2C[C@@]34COC[C@](C)([C@@H]3CC[C@H]3C4=CC[C@@]4(C)[C@H](C(=O)O)[C@@](C)([C@H](C)C(C)C)CC[C@]34C)[C@H]2OC[C@](C)(N)C(C)C)n1` (single isomer, unassigned) [Example 8A] is 0.00574 µM.
